Laboratory results from patent US20230340011A1 (Asteroid Therapeutics, priority 2022, published 2023).

molecular target: SREBP-2 (Homo sapiens (Human), UniProt Q12772); test: In vitro assay SREBP-2: PathHunter U2OS SREBP-2 Nuclear Translocation Cell Line, U18666A-stimulated; format: cell-based; settings: PathHunter U2OS SREBP-2 nuclear translocation cells, U18666A 10 μM, overnight (16 hours)

Q: CC(C)C1(O)CCN(C(=O)CC[C@@H](C)[C@H]2CC[C@H]3[C@@H]4CC=C5C[C@@H](O)CC[C@]5(C)[C@H]4CC[C@]23C)CC1 [Example 149, (R)-4-((3S,8S,9S,10R,13R,14S,17R)-3-hydroxy-10,13-dimethyl-2,3,4,7,8,9,10,11,12,13,14,15,16,17-tetradecahydro-1H-cyclopenta[a]phenanthren-17-yl)-1-(4-hydroxy-4-isopropylpiperidin-1-yl) pentan-1-one] was tested. Which IC50 did it give?
A: Its IC50 is < 250 nM.

Q: How did the IC50 turn out when C[C@H](CCC(=O)N1CC[C@H](NC(=O)c2cnccn2)C1)[C@H]1CC[C@H]2[C@@H]3CC=C4C[C@@H](O)CC[C@]4(C)[C@H]3CC[C@]12C [Example 529, N—((S)-1-((R)-4-((3S,8S,9S,10R,13R,14S,17R)-3-hydroxy-10,13-dimethyl-2,3,4,7,8,9,10,11,12,13,14,15,16,17-tetradecahydro-1H-cyclopenta[a]phenanthren-17-yl)pentanoyl)pyrrolidin-3-yl)pyrazine-2-carboxamide] was run?
A: The IC50 was < 250 nM.

Q: How did the IC50 turn out when C[C@H](CCC(=O)N1CCC(O)(C2CCC2)CC1)[C@H]1CC[C@H]2[C@@H]3CC=C4C[C@@H](O)CC[C@]4(C)[C@H]3CC[C@]12C [Example 194, (R)-1-(4-cyclobutyl-4-hydroxypiperidin-1-yl)-4-((3S,8S,9S,10R,13R,14S,17R)-3-hydroxy-10,13-dimethyl-2,3,4,7,8,9,10,11,12,13,14,15,16,17-tetradecahydro-1H-cyclopenta[a]phenanthren-17-yl)pentan-1-one] was run?
A: Its IC50 is < 250 nM.

Q: Which IC50 does the source give for Cc1ccnc(OC[C@@H](C)[C@H]2CC[C@H]3[C@@H]4CC=C5C[C@@H](O)CC[C@]5(C)[C@H]4CC[C@]23C)c1 [Example 442, (1R,3aS,3bS,7S,9aR,9bS,11aS)-9a,11a-dimethyl-1-[(2S)-1-[(4-methylpyridin-2-yl)oxy]propan-2-yl]-1H,2H,3H,3aH,3bH,4H,6H,7H,8H,9H,9aH,9bH,10H,11H,11aH-cyclopenta[a]phenanthren-7-ol] here?
A: The IC50 was < 250 nM.

Q: With C[C@H](Oc1cnccc1CO)[C@H]1CC[C@H]2[C@@H]3CC=C4C[C@@H](O)CC[C@]4(C)[C@H]3CC[C@]12C [Example 268, (3S,8S,9S,10R,13S,14S,17S)-17-((S)-1-((4-(hydroxymethyl)pyridin-3-yl)oxy)ethyl)-10,13-dim ethyl-2,3,4,7,8,9,10,11,12,13,14,15,16,17-tetradecahydro-1H-cyclopenta[a]phenanthren-3-ol] as the compound, how does the IC50 read?
A: The IC50 was 250 to 1000 nM.

Q: Which IC50 does the source give for CC(=O)NC1CN(C(=O)CC[C@@H](C)[C@H]2CC[C@H]3[C@@H]4CC=C5C[C@@H](O)CC[C@]5(C)[C@H]4CC[C@]23C)C1 [Example 326, N-{1-[(4R)-4-[(1R,3aS,3bS,7S,9aR,9bS,11aR)-7-hydroxy-9a,11a-dimethyl-1H,2H,3H,3aH,3bH,4H,6H,7H,8H,9H,9aH,9bH,10H,11H,11aH-cyclopenta[a]phenanthren-1-yl]pentanoyl]azetidin-3-yl}acetamide] here?
A: Its IC50 is 250 to 1000 nM.

Q: Which IC50 does the source give for Cc1ccncc1O[C@@H](C)[C@H]1CC[C@H]2[C@@H]3CC=C4C[C@@H](O)CC[C@]4(C)[C@H]3CC[C@]12C [Example 433, (3S,8S,9S,10R,13S,14S,17S)-10,13-dimethyl-17-((S)-1-((4-methylpyridin-3-yl)oxy)ethyl)-2,3,4,7,8,9,10,11,12,13,14,15,16,17-tetradecahydro-1H-cyclopenta[a]phenanthren-3-ol] here?
A: The IC50 was 250 to 1000 nM.

Q: How did the IC50 turn out when C[C@H](CCC(=O)N1CCC(O)(c2ccnnc2)CC1)[C@H]1CC[C@H]2[C@@H]3CC=C4C[C@@H](O)CC[C@]4(C)[C@H]3CC[C@]12C [Example 343, (R)-4-((3S,8S,9S,10R,13R,14S,17R)-3-hydroxy-10,13-dimethyl-2,3,4,7,8,9,10,11,12,13,14,15,16,17-tetradecahydro-1H-cyclopenta[a]phenanthren-17-yl)-1-(4-hydroxy-4-(pyridazin-4-yl)piperidin-1-yl) pentan-1-one] was run?
A: Its IC50 is 1000 to 10000 nM.

Q: How did the IC50 turn out when C[C@H](CCC(=O)N1CC[C@H](NC(=O)c2cnn(C)c2)C1)[C@H]1CC[C@H]2[C@@H]3CC=C4C[C@@H](O)CC[C@]4(C)[C@H]3CC[C@]12C [Example 526, N-[(3S)-1-[(4R)-4-[(1R,3aS,3bS,7S,9aR,9bS,11aR)-7-hydroxy-9a,11a-dimethyl-1H,2H,3H,3aH,3bH,4H,6H,7H,8H,9H,9aH,9bH,10H,11H,11aH-cyclopenta[a]phenanthren-1-yl]pentanoyl]pyrrolidin-3-yl]-1-methyl-1H-pyrazole-4-carboxamide] was run?
A: Its IC50 is < 250 nM.

Q: With C[C@H](CCC(=O)N1OCCC[C@@H]1C)[C@H]1CC[C@H]2[C@@H]3CC=C4C[C@@H](O)CC[C@]4(C)[C@H]3CC[C@]12C [Example 74, (R)-4-((3S,8S,9S,10R,13R,14S,17R)-3-hydroxy-10,13-dimethyl-2,3,4,7,8,9,10,11,12,13,14,15,16,17-tetradecahydro-1H-cyclopenta[a]phenanthren-17-yl)-1-((S)-3-methyl-1,2-oxazinan-2-yl)pentan-1-one] as the compound, how does the IC50 read?
A: The IC50 was < 250 nM.

Q: For C[C@H](OC(=O)C(=O)N(C)C)[C@H]1CC[C@H]2[C@@H]3CC=C4C[C@@H](O)CC[C@]4(C)[C@H]3CC[C@]12C [Example 35, (S)-1-((3S,8S,9S,10R,13S,14S,17S)-3-hydroxy-10,13-dimethyl-2,3,4,7,8,9,10,11,12,13,14,15,16,17-tetradecahydro-1H-cyclopenta[a]phenanthren-17-yl)ethyl 2-(dimethylamino)-2-oxoacetate], which IC50 is on record?
A: Its IC50 is 250 to 1000 nM.

Q: How did the IC50 turn out when CCN(CC)C(=O)C(=O)O[C@@H](C)[C@H]1CC[C@H]2[C@@H]3CC=C4C[C@@H](O)CC[C@]4(C)[C@H]3CC[C@]12C [Example 154, (1S)-1-[(1S,3aS,3bS,7S,9aR,9bS,11aS)-7-hydroxy-9a,11a-dimethyl-1H,2H,3H,3aH,3bH,4H,6H,7H,8H,9H,9aH,9bH,10H,11H,11aH-cyclopenta[a]phenanthren-1-yl]ethyl (diethylcarbamoyl)formate] was run?
A: The IC50 was < 250 nM.

Q: For C[C@H](CCC(=O)N1CCOCC1)[C@H]1CC[C@H]2[C@@H]3CC=C4C[C@@H](O)CC[C@]4(C)[C@H]3CC[C@]12C [Example 7, (R)-4-((3S,8S,9S,10R,13R,14S,17R)-3-hydroxy-10,13-dimethyl-2,3,4,7,8,9,10,11,12,13,14,15,16,17-tetradecahydro-1H-cyclopenta[a]phenanthren-17-yl)-1-morpholinopentan-1-one], which IC50 is on record?
A: The IC50 was < 250 nM.

Q: With C=CC1(O)CCN(C(=O)CC[C@@H](C)[C@H]2CC[C@H]3[C@@H]4CC=C5C[C@@H](O)CC[C@]5(C)[C@H]4CC[C@]23C)CC1 [Example 146, (R)-4-((3S,8S,9S,10R,13R,14S,17R)-3-hydroxy-10,13-dimethyl-2,3,4,7,8,9,10,11,12,13,14,15,16,17-tetradecahydro-1H-cyclopenta[a]phenanthren-17-yl)-1-(4-hydroxy-4-vinylpiperidin-1-yl) pentan-1-one] as the compound, how does the IC50 read?
A: The IC50 was < 250 nM.

Q: Which IC50 does the source give for CC(=N)N1CCN(C(=O)CC[C@@H](C)[C@H]2CC[C@H]3[C@@H]4CC=C5C[C@@H](O)CC[C@]5(C)[C@H]4CC[C@]23C)CC1 [Example 459, (R)-4-((3S,8S,9S,10R,13R,14S,17R)-3-hydroxy-10,13-dimethyl-2,3,4,7,8,9,10,11,12,13,14,15,16,17-tetradecahydro-1H-cyclopenta[a]phenanthren-17-yl)-1-(4-(1-iminoethyl)piperazin-1-yl)pentan-1-one] here?
A: The IC50 was 250 to 1000 nM.

Q: For C[C@H](CC[C@](O)(C1CCC1)C(F)(F)F)[C@H]1CC[C@H]2[C@@H]3CC=C4C[C@@H](O)CC[C@]4(C)[C@H]3CC[C@]12C [Example 25, (3S,8S,9S,10R,13R,14S,17R)-17-((2R,5S)-5-cyclobutyl-6,6,6-trifluoro-5-hydroxyhexan-2-yl)-10,13-dimethyl-2,3,4,7,8,9,10,11,12,13,14,15,16,17-tetradecahydro-1H-cyclopenta[a]phenanthren-3-ol], which IC50 is on record?
A: The IC50 was 250 to 1000 nM.

Q: Which IC50 does the source give for CC[C@@H]1NC[C@@H]2CON(C(=O)CC[C@@H](C)[C@H]3CC[C@H]4[C@@H]5CC=C6C[C@@H](O)CC[C@]6(C)[C@H]5CC[C@]34C)[C@@H]21 [Example 48, (R)-1-((3aS,6S,6aS)-6-ethylhexahydro-1H-pyrrolo[3,4-c]isoxazol-1-yl)-4-((3S,8S,9S,10R,13R,14S,17R)-3-hydroxy-10,13-dimethyl-2,3,4,7,8,9,10,11,12,13,14,15,16,17-tetradecahydro-1H-cyclopenta[a]phenanthren-17-yl)pentan-1-one] here?
A: The IC50 was 250 to 1000 nM.

Q: For COc1cccnc1CC[C@@H](C)[C@H]1CC[C@H]2[C@@H]3CC=C4C[C@@H](O)CC[C@]4(C)[C@H]3CC[C@]12C [Example 186, (1R,3aS,3bS,7S,9aR,9bS,11aR)-1-[(2R)-4-(3-methoxypyridin-2-yl)butan-2-yl]-9a,11a-dimethyl-1H,2H,3H,3aH,3bH,4H,6H,7H,8H,9H,9aH,9bH,10H,11H,11aH-cyclopenta[a]phenanthren-7-ol], which IC50 is on record?
A: Its IC50 is < 250 nM.

Q: Cc1cccc(OC[C@@H](C)[C@H]2CC[C@H]3[C@@H]4CC=C5C[C@@H](O)CC[C@]5(C)[C@H]4CC[C@]23C)n1 [Example 440, (1R,3aS,3bS,7S,9aR,9bS,11aS)-9a,11a-dimethyl-1-[(2S)-1-[(6-methylpyridin-2-yl)oxy]propan-2-yl]-1H,2H,3H,3aH,3bH,4H,6H,7H,8H,9H,9aH,9bH,10H,11H,11aH-cyclopenta[a]phenanthren-7-ol] was tested. Which IC50 did it give?
A: The IC50 was 250 to 1000 nM.

Q: For CC(=O)N1CCN(C(=O)CC[C@@H](C)[C@H]2CC[C@H]3[C@@H]4CC=C5C[C@@H](O)CC[C@]5(C)[C@H]4CC[C@]23C)CC1 [Example 3, (R)-1-(4-acetylpiperazin-1-yl)-4-((3S,8S,9S,10R,13R,14S,17R)-3-hydroxy-10,13-dimethyl-2,3,4,7,8,9,10,11,12,13,14,15,16,17-tetradecahydro-1H-cyclopenta[a]phenanthren-17-yl)pentan-1-one], which IC50 is on record?
A: Its IC50 is < 250 nM.

Q: How did the IC50 turn out when C[C@H](COc1cccc(CO)n1)[C@H]1CC[C@H]2[C@@H]3CC=C4C[C@@H](O)CC[C@]4(C)[C@H]3CC[C@]12C [Example 444, (3S,8S,9S,10R,13S,14S,17R)-17-((S)-1-((6-(hydroxymethyl)pyridin-2-yl)oxy)propan-2-yl)-10,13-dimethyl-2,3,4,7,8,9,10,11,12,13,14,15,16,17-tetradecahydro-1H-cyclopenta[a]phenanthren-3-ol] was run?
A: Its IC50 is < 250 nM.
